Laboratory results taken from patent US20230346820A1, “METHODS AND COMPOSITIONS FOR THE TREATMENT OF SARS-COV-2” (priority 2020, published 2023).
Counter-ions that a name gives are not always drawn. Like-named read-outs stand apart in the source and are kept apart here.

How the values were obtained:
SARS-CoV-2 [1] = system: SARS-CoV-2
HeLa-ACE2 cells [2] = system: HeLa-ACE2 cells
SARS-CoV-2 [3] = details: for Calu3 SI CC50/CoV-2 EC50 / EC50: Table 4; for EC50: read-out: Calu-3 CoV-2 EC50, aggregated data, Geomean, n = 3, 48 h
SARS-CoV-2 [4] = assay: Checkerboard synergy study with remdesivir (ZIP model, synergyfinder); type: cell-based
in vitro = details: human
[5] = human, oral; cited from earlier work
SARS-CoV-2 [6] = assay: microbe, parasite or virus in culture
HeLa-ACE2 cells [7] = assay: cells; type: cell-based, human
[8] = read-out: HeLa-ACE2 CoV-2 EC50, Table 4, aggregated data, Geomean, n = 3
[9] = read-out: HeLa-ACE2 Uninfected Tox CC50, Table 4, aggregated data, Geomean, n = 3
[10] = read-out: Calu-3 Uninfected Tox CC50, Table 4, aggregated data, Geomean, n = 3
[11] = CC50 [μM] (Geomeans, n ≥ 2 except where indicated: *n = 1)
[12] = Severe acute respiratory syndrome coronavirus 2, HeLa-ACE2, 24 h, read-out: CoV-2 EC50 [μM] (Geomeans, n ≥ 2)
[13] = Severe acute respiratory syndrome coronavirus 2, HeLa-ACE2, read-out: SARS CoV-2 EC50 (μM)
[14] = Table 1, ZIP model, δ>10 synergy, δ<−10 antagonism, between additive

## O=c1[nH]c2ccc(C(F)(F)F)cc2c(-c2cc(Cl)ccc2O)c1CCO [BMS-223131]
SARS-CoV-2 [1]; [8]
  EC50: > 9.59 µM
HeLa-ACE2 cells [2]; [9]
  CC50: 21.4 µM
SARS-CoV-2 [3]
  Calu3 SI CC50/CoV-2 EC50: >5.8
  EC50: 5.14 µM
Calu-3 cells; [10]
  CC50: > 29.9 µM

## Nc1nc(Nc2ccc3c(c2)CC[C@@H](N2CCCC2)CC3)nn1-c1cc2c(nn1)-c1ccccc1CCC2 [BGB324/R-428]
SARS-CoV-2 [4]; Table 3
  Synergy score with remdesivir (δ): 7.223
SARS-CoV-2 [1]
  HeLa-ACE2 CC50/CoV-2 EC50: 13.05
In vitro; [11]
  CC50: 15.7 µM
[5]
  Cmax: ~750 nM
  t1/2: ~80 h (oral, humans)(30)
SARS-CoV-2 [6]; [12]
  EC50: 1.2 µM
SARS-CoV-2 [6]; [13]
  EC50: 1.2 µM

## COC(=O)[C@H]1[C@H]2C[C@@H]3c4[nH]c5cc(OC)ccc5c4CCN3C[C@H]2C[C@@H](OC(=O)c2cc(OC)c(OC)c(OC)c2)[C@@H]1OC [Reserpine]
HeLa-ACE2 cells [7]; read-out: HeLa-ACE-2 EC50 [μM] (Geomeans, n ≥ 2)
  EC50: > 9.6 µM
SARS-CoV-2 [1]
  HeLa-ACE2 CC50/CoV-2 EC50: >6.60
SARS-CoV-2 [1]; read-out: CoV-2 EC50 [μM] (Geomeans, n ≥ 2), Table 1, HeLa-ACE2, 24 h
  EC50: > 5.51 µM
HeLa-ACE2 cells [2]
  CC50: > 36.4 µM

## Cc1nc2c(s1)C(=O)C=C(NCCN(C)C)C2=O [BN-82685]
SARS-CoV-2 [1]; Table 4
  HeLa-ACE2 SI CC50/CoV-2 EC50: 3.04
SARS-CoV-2 [1]; [8]
  EC50: 1.53 µM
HeLa-ACE2 cells [2]; [9]
  CC50: 4.66 µM
SARS-CoV-2 [3]
  Calu3 SI CC50/CoV-2 EC50: 5.69
  EC50: 3.05 µM
Calu-3 cells; [10]
  CC50: 5.96 µM

## COC(=O)C1=C(C)NC(C)=C(C(=O)OC)C1c1cc([N+](=O)[O-])ccc1OCCCCNC[C@H](O)COc1ccccc1 [YM 161514]
HeLa-ACE2 cells [7]; Homo sapiens, HeLa-ACE2, read-out: HeLa-ACE-2 EC50 [μM] (Geomeans, n ≥ 2)
  EC50: > 8.47 µM
SARS-CoV-2 [4]; [14]
  Synergy score with remdesivir (δ): 0.601
SARS-CoV-2 [4]; Table 3
  Synergy score with remdesivir (δ): 0.60
SARS-CoV-2 [1]
  HeLa-ACE2 CC50/CoV-2 EC50: 6.08
In vitro; [11]
  CC50: 11.3 µM
In vitro; Uninfected HeLa-ACE2 CC50 (μM)
  CC50: 11.3 µM
SARS-CoV-2 [6]; [12]
  EC50: 1.86 µM
SARS-CoV-2 [6]; [13]
  EC50: 1.86 µM

## CCCCN(CCCC)CCC(O)c1cc2c(Cl)cc(Cl)cc2c2cc(C(F)(F)F)ccc12 (stereo not drawn) [Halofantrine HCl]
SARS-CoV-2 [4]; Table 3
  Synergy score with remdesivir (δ): −3.509
SARS-CoV-2 [1]
  HeLa-ACE2 CC50/CoV-2 EC50: >20.66
In vitro; [11]
  CC50: > 23.9 µM
In vitro; Uninfected HeLa-ACE2 CC50 (μM)
  CC50: > 23.9 µM
[5]
  Cmax: ~1000 nM
  t1/2: ~72 h (human oral)(16, 17)
SARS-CoV-2 [6]; [12]
  EC50: 1.16 µM
SARS-CoV-2 [6]; [13]
  EC50: 1.16 µM

## CC(=O)OC[C@H]1O[C@@H]([S-])[C@H](OC(C)=O)[C@@H](OC(C)=O)[C@@H]1OC(C)=O.CCP(CC)CC.[Au+] [auranofin]
SARS-CoV-2 [1]; Table 4
  HeLa-ACE2 SI CC50/CoV-2 EC50: 0.64
SARS-CoV-2 [1]; [8]
  EC50: 0.988 µM
HeLa-ACE2 cells [2]; [9]
  CC50: 0.634 µM
SARS-CoV-2 [3]
  Calu3 SI CC50/CoV-2 EC50: 7.87
  EC50: 0.525 µM
Calu-3 cells; [10]
  CC50: 3.13 µM

## CC(C)(C)Cn1c(N)nc2ccc(-c3[nH]c(C(C)(C)C)nc3-c3ccc(F)cc3)nc21 [Ralimetinib mesylate/LY2228820, Ralimetinib mesylate]
SARS-CoV-2 [4]; [14]
  Synergy score with remdesivir (δ): −0.846
SARS-CoV-2 [4]; Table 3
  Synergy score with remdesivir (δ): −0.846
SARS-CoV-2 [1]
  HeLa-ACE2 CC50/CoV-2 EC50: 14.6
  activity in HeLa-ACE2 infection assay: active
SARS-CoV-2 [3]
  activity in Calu-3 infection assay: active
In vitro; [11]
  CC50: 27.4 µM
[5]
  Cmax: ~5000 nM
  t1/2: ~145 h (human, oral)(28)
SARS-CoV-2 [6]; [12]
  EC50: 1.87 µM

## Oc1ccc(Nc2ccnc3cc(Cl)ccc23)cc1CN1CCCC1 [AMOPYROQUINE]
SARS-CoV-2 [1]
  HeLa-ACE2 CC50/CoV-2 EC50: 19.02
HeLa-ACE2 cells [2]; human
  CC50: 17.2 µM
SARS-CoV-2 [6]; [12]
  EC50: 0.904 µM

## Antimycin A3
SARS-CoV-2 [1]; [8]
  EC50: > 9.59 µM
HeLa-ACE2 cells [2]; [9]
  CC50: > 39.8 µM
SARS-CoV-2 [3]
  Calu3 SI CC50/CoV-2 EC50: 109.64
  EC50: 0.036 µM
Calu-3 cells; [10]
  CC50: 3.9 µM

## COc1ccc2c(O[C@@H]3C[C@H]4C(=O)N[C@]5(C(=O)NS(=O)(=O)C6CC6)C[C@H]5/C=C\CCCCN(C)C(=O)[C@@H]4C3)cc(-c3nc(C(C)C)cs3)nc2c1C [Simeprevir]
SARS-CoV-2 [1]
  HeLa-ACE2 CC50/CoV-2 EC50: >2.81
In vitro; [11]
  CC50: > 22.2 µM
In vitro; Uninfected HeLa-ACE2 CC50 (μM)
  CC50: > 22.2 µM
[5]
  Cmax: ~32000 nM
  t1/2: ~16 h (human oral)(21, 22)
SARS-CoV-2 [6]; [12]
  EC50: > 7.88 µM

## Nc1nc2[nH]cnc2c(=S)[nH]1 [Tioguanine]
SARS-CoV-2 [1]; Table 4
  HeLa-ACE2 SI CC50/CoV-2 EC50: 3.58
SARS-CoV-2 [1]; [8]
  EC50: 0.787 µM
HeLa-ACE2 cells [2]; [9]
  CC50: 2.82 µM
SARS-CoV-2 [3]
  Calu3 SI CC50/CoV-2 EC50: 6.45
  EC50: 0.127 µM
Calu-3 cells
  CC50: 0.822 µM

## COC1(c2cc(F)cc(OCc3ccc4c(ccc(=O)n4C)c3)c2)CCOCC1 [ZD 2138]
SARS-CoV-2 [1]; [8]
  EC50: > 9.59 µM
HeLa-ACE2 cells [2]; [9]
  CC50: 28.7 µM
SARS-CoV-2 [3]
  Calu3 SI CC50/CoV-2 EC50: 5.18
  EC50: 2.79 µM
Calu-3 cells; [10]
  CC50: 14.4 µM

## CCOC(=O)[C@@H]1O[C@H]1C(=O)N[C@@H](CC(C)C)C(=O)N1CCN(Cc2ccc(OC)c(OC)c2OC)CC1 [NCO 700]
SARS-CoV-2 [4]; Table 3
  Synergy score with remdesivir (δ): 0.209
SARS-CoV-2 [1]
  HeLa-ACE2 CC50/CoV-2 EC50: >50.44
In vitro; [11]
  CC50: > 39.8 µM
In vitro; Uninfected HeLa-ACE2 CC50 (μM)
  CC50: > 39.8 µM
SARS-CoV-2 [6]; [12]
  EC50: 0.79 µM
SARS-CoV-2 [6]; [13]
  EC50: 0.79 µM

## CN(C)CCOc1ccc2c(=O)c3ccc(OCCN(C)C)cc3oc2c1 [TILORINE DIHYDROCHLORIDE]
SARS-CoV-2 [1]
  HeLa-ACE2 CC50/CoV-2 EC50: 11.07
HeLa-ACE2 cells [2]; human
  CC50: 9.79 µM
SARS-CoV-2 [6]; [12]
  EC50: 0.884 µM
